In ChEMBL document CHEMBL4507272 (2021):

Columns and labels:
[1] = test system: ALK tyrosine kinase receptor (Homo sapiens), Q9UM73 [C1156Y]; details: Compound concentration 1000.0 nM
[2] = target: Tyrosine-protein kinase SYK (Homo sapiens) (UniProt P43405); details: Compound concentration 1000.0 nM
[3] = target: Serine/threonine-protein kinase 10 (Homo sapiens) (UniProt O94804); details: Compound concentration 1000.0 nM
[4] = target: Peripheral plasma membrane protein CASK (Homo sapiens) (UniProt O14936); details: Compound concentration 1000.0 nM
[5] = target: Tyrosine-protein kinase JAK2 (Homo sapiens) (UniProt O60674); details: Compound concentration 1000.0 nM
Sequence of Tyrosine-protein kinase JAK2 (Homo sapiens) (O60674 whole entry): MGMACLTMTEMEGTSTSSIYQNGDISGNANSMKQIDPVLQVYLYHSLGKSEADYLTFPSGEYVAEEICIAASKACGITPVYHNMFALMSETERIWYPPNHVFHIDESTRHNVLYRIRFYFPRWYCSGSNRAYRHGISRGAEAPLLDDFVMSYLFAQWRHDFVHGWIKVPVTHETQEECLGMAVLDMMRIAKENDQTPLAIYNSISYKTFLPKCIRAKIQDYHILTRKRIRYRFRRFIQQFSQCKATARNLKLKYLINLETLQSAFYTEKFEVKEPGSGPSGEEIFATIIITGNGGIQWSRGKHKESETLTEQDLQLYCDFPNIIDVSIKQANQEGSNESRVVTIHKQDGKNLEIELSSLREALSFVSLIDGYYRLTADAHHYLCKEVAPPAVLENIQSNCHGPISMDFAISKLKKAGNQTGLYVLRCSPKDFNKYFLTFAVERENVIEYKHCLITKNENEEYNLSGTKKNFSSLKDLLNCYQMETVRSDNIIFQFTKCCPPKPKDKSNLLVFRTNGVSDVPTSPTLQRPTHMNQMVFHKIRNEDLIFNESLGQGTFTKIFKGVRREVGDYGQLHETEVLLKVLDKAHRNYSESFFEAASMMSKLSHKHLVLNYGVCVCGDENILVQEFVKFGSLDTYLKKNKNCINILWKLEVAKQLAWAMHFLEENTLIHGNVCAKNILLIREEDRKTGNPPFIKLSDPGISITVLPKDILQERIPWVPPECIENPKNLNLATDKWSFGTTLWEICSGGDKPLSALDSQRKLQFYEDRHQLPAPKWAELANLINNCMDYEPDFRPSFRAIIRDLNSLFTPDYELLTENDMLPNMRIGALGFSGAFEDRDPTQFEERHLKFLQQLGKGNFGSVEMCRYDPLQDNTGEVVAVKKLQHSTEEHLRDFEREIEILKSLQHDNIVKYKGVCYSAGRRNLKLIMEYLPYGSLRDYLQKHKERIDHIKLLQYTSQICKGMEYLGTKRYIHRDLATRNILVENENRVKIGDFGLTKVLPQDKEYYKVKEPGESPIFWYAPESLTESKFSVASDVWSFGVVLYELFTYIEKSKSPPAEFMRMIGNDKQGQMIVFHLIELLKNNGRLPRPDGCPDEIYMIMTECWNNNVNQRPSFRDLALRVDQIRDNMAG

[6] = target: Mitogen-activated protein kinase kinase kinase 15 (Homo sapiens) (UniProt Q6ZN16); details: Compound concentration 1000.0 nM
[7] = target: 3-phosphoinositide-dependent protein kinase 1 (Homo sapiens) (UniProt O15530); details: Compound concentration 1000.0 nM
[8] = target: Phosphorylase b kinase gamma catalytic chain, skeletal muscle/heart isoform (Homo sapiens) (UniProt Q16816); details: Compound concentration 1000.0 nM
[9] = target: 5-hydroxytryptamine receptor 1E (Homo sapiens) (UniProt P28566); details: Compound concentration 10.0 uM
[10] = target: Phosphatidylinositol 4,5-bisphosphate 3-kinase catalytic subunit beta isoform (Homo sapiens) (UniProt P42338); details: Compound concentration 1000.0 nM
[11] = target: Mitogen-activated protein kinase 6 (Homo sapiens) (UniProt Q16659); details: Compound concentration 1000.0 nM
Sequence of Mitogen-activated protein kinase 6 (Homo sapiens) (Q16659 whole entry): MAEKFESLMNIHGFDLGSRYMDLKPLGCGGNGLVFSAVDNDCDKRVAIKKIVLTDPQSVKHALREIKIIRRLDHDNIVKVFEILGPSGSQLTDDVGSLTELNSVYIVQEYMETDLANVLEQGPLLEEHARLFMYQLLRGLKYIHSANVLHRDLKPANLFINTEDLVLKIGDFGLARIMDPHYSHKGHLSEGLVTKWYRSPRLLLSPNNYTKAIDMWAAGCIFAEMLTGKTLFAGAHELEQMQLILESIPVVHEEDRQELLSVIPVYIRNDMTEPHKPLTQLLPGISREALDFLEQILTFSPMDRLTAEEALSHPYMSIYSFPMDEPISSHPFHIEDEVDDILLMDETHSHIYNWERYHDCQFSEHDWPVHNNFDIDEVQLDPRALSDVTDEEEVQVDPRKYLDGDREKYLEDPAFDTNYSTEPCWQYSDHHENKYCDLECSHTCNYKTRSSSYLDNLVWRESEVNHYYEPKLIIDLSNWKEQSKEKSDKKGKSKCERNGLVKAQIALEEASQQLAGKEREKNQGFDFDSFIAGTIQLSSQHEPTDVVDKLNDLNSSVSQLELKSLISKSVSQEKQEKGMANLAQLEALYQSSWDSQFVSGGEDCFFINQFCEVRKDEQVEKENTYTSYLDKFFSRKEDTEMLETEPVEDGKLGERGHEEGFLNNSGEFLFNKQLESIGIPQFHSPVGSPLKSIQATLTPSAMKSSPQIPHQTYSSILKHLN

[12] = target: Calcium/calmodulin-dependent protein kinase type 1 (Homo sapiens) (UniProt Q14012); details: Compound concentration 1000.0 nM
[13] = target: Mitogen-activated protein kinase kinase kinase 3 (Homo sapiens) (UniProt Q99759); details: Compound concentration 1000.0 nM
[14] = target: RAC-alpha serine/threonine-protein kinase (Homo sapiens) (UniProt P31749); details: Compound concentration 1000.0 nM
[15] = target: Hormonally up-regulated neu tumor-associated kinase (Homo sapiens) (UniProt P57058); details: Compound concentration 1000.0 nM
Sequence of Hormonally up-regulated neu tumor-associated kinase (Homo sapiens) (P57058 whole entry): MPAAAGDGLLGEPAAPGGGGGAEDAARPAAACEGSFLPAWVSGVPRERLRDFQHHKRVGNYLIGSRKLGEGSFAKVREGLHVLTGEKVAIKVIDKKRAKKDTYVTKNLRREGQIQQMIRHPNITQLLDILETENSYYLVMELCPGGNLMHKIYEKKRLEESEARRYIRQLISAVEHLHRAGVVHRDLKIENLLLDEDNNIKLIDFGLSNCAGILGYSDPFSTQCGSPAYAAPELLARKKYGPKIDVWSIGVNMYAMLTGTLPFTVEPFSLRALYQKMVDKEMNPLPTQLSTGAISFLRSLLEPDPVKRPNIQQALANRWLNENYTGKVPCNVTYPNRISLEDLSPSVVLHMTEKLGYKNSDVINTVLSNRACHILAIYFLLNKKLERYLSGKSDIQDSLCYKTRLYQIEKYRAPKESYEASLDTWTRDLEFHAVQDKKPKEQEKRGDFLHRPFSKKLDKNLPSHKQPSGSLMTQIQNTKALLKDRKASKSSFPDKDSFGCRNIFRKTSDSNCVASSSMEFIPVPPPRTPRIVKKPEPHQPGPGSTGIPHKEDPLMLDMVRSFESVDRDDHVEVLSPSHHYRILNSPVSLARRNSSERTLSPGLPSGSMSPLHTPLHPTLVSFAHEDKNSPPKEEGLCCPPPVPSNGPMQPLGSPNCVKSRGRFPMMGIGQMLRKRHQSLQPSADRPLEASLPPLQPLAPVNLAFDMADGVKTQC

[16] = target: Serine/threonine-protein kinase 32C (Homo sapiens) (UniProt Q86UX6); details: Compound concentration 1000.0 nM
[17] = target: Serine/threonine-protein kinase Nek10 (Homo sapiens) (UniProt Q6ZWH5); details: Compound concentration 1000.0 nM
[18] = target: Mitogen-activated protein kinase kinase kinase 19 (Homo sapiens) (UniProt Q56UN5); details: Compound concentration 1000.0 nM
[19] = target: Casein kinase I isoform epsilon (Homo sapiens) (UniProt P49674); details: Compound concentration 1000.0 nM
[20] = test system: Receptor-type tyrosine-protein kinase FLT3 (Homo sapiens), P36888 [UNDEFINED MUTATION]; details: Compound concentration 1000.0 nM
[21] = target: Myosin-IIIb (Homo sapiens) (UniProt Q8WXR4); details: Compound concentration 1000.0 nM
[22] = target: Serine/threonine-protein kinase pim-2 (Homo sapiens) (UniProt Q9P1W9); details: Compound concentration 1000.0 nM
[23] = test system: Proto-oncogene tyrosine-protein kinase receptor Ret (Homo sapiens), P07949 [M918T]; details: Compound concentration 1000.0 nM
[24] = target: Cyclin-dependent kinase 2 homolog (Plasmodium falciparum (isolate 3D7)) (UniProt P61075); details: Compound concentration 1000.0 nM
Sequence of Cyclin-dependent kinase 2 homolog (Plasmodium falciparum (isolate 3D7)) (P61075 whole entry): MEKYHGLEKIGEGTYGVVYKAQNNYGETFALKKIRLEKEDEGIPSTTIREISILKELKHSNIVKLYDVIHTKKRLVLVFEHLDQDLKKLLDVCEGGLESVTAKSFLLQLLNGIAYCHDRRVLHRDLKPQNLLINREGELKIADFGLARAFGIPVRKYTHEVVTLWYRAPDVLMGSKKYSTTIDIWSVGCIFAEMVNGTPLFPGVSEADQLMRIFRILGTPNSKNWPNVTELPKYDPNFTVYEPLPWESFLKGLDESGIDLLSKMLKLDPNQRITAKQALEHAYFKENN

[25] = target: Wee1-like protein kinase 2 (Homo sapiens) (UniProt P0C1S8); details: Compound concentration 1000.0 nM
[26] = target: Sigma intracellular receptor 2 (Homo sapiens) (UniProt Q5BJF2); details: Compound concentration 10.0 uM
Sequence of Sigma intracellular receptor 2 (Homo sapiens) (Q5BJF2 whole entry): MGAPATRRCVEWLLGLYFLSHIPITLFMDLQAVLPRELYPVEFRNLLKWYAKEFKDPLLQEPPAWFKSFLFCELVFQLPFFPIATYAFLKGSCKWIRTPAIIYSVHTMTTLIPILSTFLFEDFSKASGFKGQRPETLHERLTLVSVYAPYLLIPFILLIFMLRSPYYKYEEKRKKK

[27] = target: Mitogen-activated protein kinase kinase kinase 1 (Homo sapiens) (UniProt Q13233); details: Compound concentration 1000.0 nM
[28] = target: Mitogen-activated protein kinase 10 (Homo sapiens) (UniProt P53779); details: Compound concentration 1000.0 nM
[29] = target: Insulin-like growth factor 1 receptor (Homo sapiens) (UniProt P08069); details: Compound concentration 1000.0 nM
[30] = target: Homeodomain-interacting protein kinase 1 (Homo sapiens) (UniProt Q86Z02); details: Compound concentration 1000.0 nM
[31] = target: Tyrosine-protein kinase ITK/TSK (Homo sapiens) (UniProt Q08881); details: Compound concentration 1000.0 nM
[32] = target: ALK tyrosine kinase receptor (Homo sapiens) (UniProt Q9UM73); details: Compound concentration 1000.0 nM
[33] = target: Aurora kinase C (Homo sapiens) (UniProt Q9UQB9); details: Compound concentration 1000.0 nM
[34] = target: Myosin light chain kinase, smooth muscle (Homo sapiens) (UniProt Q15746); details: Compound concentration 1000.0 nM
[35] = target: Receptor-interacting serine/threonine-protein kinase 4 (Homo sapiens) (UniProt P57078); details: Compound concentration 1000.0 nM
[36] = target: Ephrin type-A receptor 3 (Homo sapiens) (UniProt P29320); details: Compound concentration 1000.0 nM
[37] = target: Macrophage colony-stimulating factor 1 receptor (Homo sapiens) (UniProt P07333); details: Compound concentration 1000.0 nM
[38] = target: Tyrosine-protein kinase Lyn (Homo sapiens) (UniProt P07948); details: Compound concentration 1000.0 nM
[39] = target: Casein kinase II subunit alpha (Homo sapiens) (UniProt P68400); details: Compound concentration 1000.0 nM
[40] = target: Non-receptor tyrosine-protein kinase TYK2 (Homo sapiens) (UniProt P29597); details: Compound concentration 1000.0 nM
Sequence of Non-receptor tyrosine-protein kinase TYK2 (Homo sapiens) (P29597 whole entry): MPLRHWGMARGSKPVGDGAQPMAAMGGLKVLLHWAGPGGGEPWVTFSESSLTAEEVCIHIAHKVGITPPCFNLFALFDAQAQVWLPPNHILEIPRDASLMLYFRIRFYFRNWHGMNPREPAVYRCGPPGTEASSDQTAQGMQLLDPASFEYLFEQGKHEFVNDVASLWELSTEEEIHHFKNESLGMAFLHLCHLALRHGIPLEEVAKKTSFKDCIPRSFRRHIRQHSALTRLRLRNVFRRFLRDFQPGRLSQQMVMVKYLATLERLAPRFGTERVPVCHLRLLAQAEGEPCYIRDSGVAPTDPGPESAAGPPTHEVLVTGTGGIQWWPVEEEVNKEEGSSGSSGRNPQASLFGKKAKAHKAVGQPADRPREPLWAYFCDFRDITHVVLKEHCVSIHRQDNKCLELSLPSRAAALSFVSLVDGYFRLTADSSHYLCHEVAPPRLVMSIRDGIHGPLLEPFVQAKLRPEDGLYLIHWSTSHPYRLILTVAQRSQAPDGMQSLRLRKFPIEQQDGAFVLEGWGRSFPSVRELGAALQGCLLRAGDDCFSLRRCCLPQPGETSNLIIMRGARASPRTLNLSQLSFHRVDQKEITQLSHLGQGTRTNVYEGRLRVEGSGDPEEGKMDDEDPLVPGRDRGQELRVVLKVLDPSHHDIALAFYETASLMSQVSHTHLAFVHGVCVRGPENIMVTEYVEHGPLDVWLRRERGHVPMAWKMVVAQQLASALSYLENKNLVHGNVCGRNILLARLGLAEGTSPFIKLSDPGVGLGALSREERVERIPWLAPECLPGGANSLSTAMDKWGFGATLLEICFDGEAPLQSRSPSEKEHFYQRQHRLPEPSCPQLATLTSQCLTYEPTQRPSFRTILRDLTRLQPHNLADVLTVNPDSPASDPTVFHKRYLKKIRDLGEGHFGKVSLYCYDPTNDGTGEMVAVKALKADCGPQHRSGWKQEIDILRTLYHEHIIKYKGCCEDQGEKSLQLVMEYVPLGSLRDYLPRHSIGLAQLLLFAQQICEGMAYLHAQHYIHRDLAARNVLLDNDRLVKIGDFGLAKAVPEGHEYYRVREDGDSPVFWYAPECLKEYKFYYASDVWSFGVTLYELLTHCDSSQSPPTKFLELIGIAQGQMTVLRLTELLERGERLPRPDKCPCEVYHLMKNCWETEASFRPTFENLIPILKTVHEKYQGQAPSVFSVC

[41] = target: Cyclin-dependent kinase 11A (Homo sapiens) (UniProt Q9UQ88); details: Compound concentration 1000.0 nM
[42] = target: Protein kinase C epsilon type (Homo sapiens) (UniProt Q02156); details: Compound concentration 1000.0 nM
[43] = test system: Receptor-type tyrosine-protein kinase FLT3 (Homo sapiens), P36888 [R834Q]; details: Compound concentration 1000.0 nM
[44] = target: Serine/threonine-protein kinase Nek6 (Homo sapiens) (UniProt Q9HC98); details: Compound concentration 1000.0 nM
[45] = target: Fibroblast growth factor receptor 4 (Homo sapiens) (UniProt P22455); details: Compound concentration 1000.0 nM
Sequence of Fibroblast growth factor receptor 4 (Homo sapiens) (P22455 22-802 limits assumed): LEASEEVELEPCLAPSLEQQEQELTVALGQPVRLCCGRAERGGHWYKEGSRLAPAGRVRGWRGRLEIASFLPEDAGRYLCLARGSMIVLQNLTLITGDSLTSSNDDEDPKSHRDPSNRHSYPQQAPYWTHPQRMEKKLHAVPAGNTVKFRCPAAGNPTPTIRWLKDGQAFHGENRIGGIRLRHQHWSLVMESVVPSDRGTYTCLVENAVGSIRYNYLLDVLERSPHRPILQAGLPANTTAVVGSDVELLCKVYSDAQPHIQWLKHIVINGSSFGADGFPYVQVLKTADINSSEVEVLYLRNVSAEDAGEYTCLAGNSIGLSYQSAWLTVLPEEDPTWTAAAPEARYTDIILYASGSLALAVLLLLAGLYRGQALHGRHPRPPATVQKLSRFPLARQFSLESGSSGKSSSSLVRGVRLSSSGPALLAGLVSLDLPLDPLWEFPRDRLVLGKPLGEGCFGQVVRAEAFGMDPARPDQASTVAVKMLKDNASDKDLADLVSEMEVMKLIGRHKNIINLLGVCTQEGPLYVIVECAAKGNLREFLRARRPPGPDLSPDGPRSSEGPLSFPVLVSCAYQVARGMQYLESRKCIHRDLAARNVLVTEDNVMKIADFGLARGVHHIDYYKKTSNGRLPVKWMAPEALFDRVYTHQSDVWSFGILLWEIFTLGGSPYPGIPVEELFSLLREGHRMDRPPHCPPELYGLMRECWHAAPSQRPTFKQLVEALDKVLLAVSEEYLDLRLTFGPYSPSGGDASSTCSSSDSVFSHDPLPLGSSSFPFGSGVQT

CC(=O)C1=C(C)N(c2cccc(C(F)(F)F)c2)C(=O)N[C@@H]1c1ccc(C#N)nc1 [BAY-678]
inactive: residual activity [1] 100% | residual activity [2] 100% | residual activity [3] 84.5% | residual activity [4] 100% | residual activity [5] 87.1% | residual activity [6] 100% | residual activity [7] 93.4% | residual activity [8] 100% | inhibition [9] 7.74% | residual activity [10] 100% | residual activity [11] 75.8% | residual activity [12] 86.7% | residual activity [13] 100% | residual activity [14] 90.4% | residual activity [15] 80.1% | residual activity [16] 94.1% | residual activity [17] 96.4% | residual activity [18] 93% | residual activity [19] 100% | residual activity [20] 61.2% | residual activity [21] 78.3% | residual activity [22] 98.2% | residual activity [23] 100% | residual activity [24] 100% | residual activity [25] 100% | inhibition [26] 35.9% | residual activity [27] 100% | residual activity [28] 100% | residual activity [29] 100% | residual activity [30] 72.6% | residual activity [31] 90.4% | residual activity [32] 100% | residual activity [33] 100% | residual activity [34] 83.8% | residual activity [35] 100% | residual activity [36] 100% | residual activity [37] 99.4% | residual activity [38] 100% | residual activity [39] 94.8% | residual activity [40] 91.3% | residual activity [41] 95.7% | residual activity [42] 73.9% | residual activity [43] 83.6% | residual activity [44] 100% | residual activity [45] 100%
